Assay results taken from US20220087996A1, “Histone acetylase p300 inhibitor and use thereof” (HINOVA PHARMACEUTICALS INC., priority 2018, published 2022).
Read-outs that look alike come from different tables or passages of the source.

How the values were obtained:
CWR22RV1 cells = assay: Inhibition of proliferation of CWR22RV1 cells (CCK-8); type: cell-based, human; details: Homo sapiens, CWR22Rv1, 144 h, 6 days culture
In short: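 Proliferation read-out was CCK-8 absorbance at 450 nm after 2.5 h, following 6-day culture with compound. Each well held 1500 CWR22RV1 cells; the 3-fold, 9-point series started at a final 10 μM in 0.1% DMSO. Dose-response-inhibition fit gave the IC50.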

histone acetylase p300 = molecular target: T1, histone acetylase p300 (Homo sapiens, UniProt Q09472); assay: Inhibitory activity on histone acetylase p300 (radioisotope FlashPlate); type: biochemical; details: enzyme 0.2 nM, peptide substrate 600 nM, [3H]-Ac-CoA 250 nM; read-out: IC50 against P300
T1 construct: purchased BPS
Text: Using the radioisotope FlashPlate technology, the half inhibitory concentration (IC50) of the compound according to the present invention was detected against histone acetylase p300 (purchased from BPS). […] Under the catalysis of histone acetylase p300, [3H]—Ac group in the isotope-labeled [3H]-Ac-CoA was transferred to the biotinylated histone polypeptide substrate (purchased from GL Biochem Ltd.), and then the biotinylated histone peptide substrate bound to the streptavidin on the FlashPlate board, so that the isotope was close enough to the FlashPlate board. Thus, the radiation energy of isotope could convert the scintillation fluid coated on the FlashPlate board into photons, that was able to be detected. Detailed procedures were as follows:
• 1× reaction buffer: 50 mM Tris-HCl, pH 7.5; 0.01% Tween-20 • Reaction stop solution: 750 μM Ac-CoA solution
Each test compound was dissolved into 10 mM with 100% DMSO, and then each compound was diluted to the desired concentration in Echo 384-well plate. […] 200 nl of 100% DMSO was transferred into the well as the negative control.
p300 was added to 1× reaction buffer to form a 2× enzyme solution (the final concentration of enzyme being 0.2 nM).
The peptide substrate and [3H]-Ac-CoA were added to the 1-fold reaction buffer, to form a 2-fold substrate solution (the final concentration of the substrate being 600 nM and 250 nM, respectively).
10 μl of 2-fold enzyme solution was added to the wells of 384-well reaction plate. […] The plate was centrifuged at 1000 rpm for 1 min and incubated at room temperature for 15 min.
10 μl of 2-fold substrate solution was added to each well of 384-well reaction plate. The plate was centrifuged at 1000 rpm for 1 min, and then reacted at 25° C. for 60 min.
10 μl of reaction stop solution was added to each well of 384-well reaction plate to stop the reaction. 25 μL solution was collected from each well of the test plate and transferred to Flashplate, that was placed at room temperature for 1 h. Then, Flashplate plate was washed three times with 0.1% Tween-20 solution.
4) Reading Data with MicroBeta 2
The data were copied from Microbeta 2. […] The maximum value is the conversion rate of the control DMSO, and the minimum value is the conversion rate of the control without enzyme activity.
The data were imported into Graph Pad Prism5, and the formula “log(inhibitor) vs. response−Variable slope” was used to perform curve fitting, to obtain the half inhibitory concentration (IC50).

[1] = read-out: IC50 against CWR22RV1 cells
[2] = read-out: IC50 against CWR22RV1 cells (text)

T1 sequence (Q09472 whole entry): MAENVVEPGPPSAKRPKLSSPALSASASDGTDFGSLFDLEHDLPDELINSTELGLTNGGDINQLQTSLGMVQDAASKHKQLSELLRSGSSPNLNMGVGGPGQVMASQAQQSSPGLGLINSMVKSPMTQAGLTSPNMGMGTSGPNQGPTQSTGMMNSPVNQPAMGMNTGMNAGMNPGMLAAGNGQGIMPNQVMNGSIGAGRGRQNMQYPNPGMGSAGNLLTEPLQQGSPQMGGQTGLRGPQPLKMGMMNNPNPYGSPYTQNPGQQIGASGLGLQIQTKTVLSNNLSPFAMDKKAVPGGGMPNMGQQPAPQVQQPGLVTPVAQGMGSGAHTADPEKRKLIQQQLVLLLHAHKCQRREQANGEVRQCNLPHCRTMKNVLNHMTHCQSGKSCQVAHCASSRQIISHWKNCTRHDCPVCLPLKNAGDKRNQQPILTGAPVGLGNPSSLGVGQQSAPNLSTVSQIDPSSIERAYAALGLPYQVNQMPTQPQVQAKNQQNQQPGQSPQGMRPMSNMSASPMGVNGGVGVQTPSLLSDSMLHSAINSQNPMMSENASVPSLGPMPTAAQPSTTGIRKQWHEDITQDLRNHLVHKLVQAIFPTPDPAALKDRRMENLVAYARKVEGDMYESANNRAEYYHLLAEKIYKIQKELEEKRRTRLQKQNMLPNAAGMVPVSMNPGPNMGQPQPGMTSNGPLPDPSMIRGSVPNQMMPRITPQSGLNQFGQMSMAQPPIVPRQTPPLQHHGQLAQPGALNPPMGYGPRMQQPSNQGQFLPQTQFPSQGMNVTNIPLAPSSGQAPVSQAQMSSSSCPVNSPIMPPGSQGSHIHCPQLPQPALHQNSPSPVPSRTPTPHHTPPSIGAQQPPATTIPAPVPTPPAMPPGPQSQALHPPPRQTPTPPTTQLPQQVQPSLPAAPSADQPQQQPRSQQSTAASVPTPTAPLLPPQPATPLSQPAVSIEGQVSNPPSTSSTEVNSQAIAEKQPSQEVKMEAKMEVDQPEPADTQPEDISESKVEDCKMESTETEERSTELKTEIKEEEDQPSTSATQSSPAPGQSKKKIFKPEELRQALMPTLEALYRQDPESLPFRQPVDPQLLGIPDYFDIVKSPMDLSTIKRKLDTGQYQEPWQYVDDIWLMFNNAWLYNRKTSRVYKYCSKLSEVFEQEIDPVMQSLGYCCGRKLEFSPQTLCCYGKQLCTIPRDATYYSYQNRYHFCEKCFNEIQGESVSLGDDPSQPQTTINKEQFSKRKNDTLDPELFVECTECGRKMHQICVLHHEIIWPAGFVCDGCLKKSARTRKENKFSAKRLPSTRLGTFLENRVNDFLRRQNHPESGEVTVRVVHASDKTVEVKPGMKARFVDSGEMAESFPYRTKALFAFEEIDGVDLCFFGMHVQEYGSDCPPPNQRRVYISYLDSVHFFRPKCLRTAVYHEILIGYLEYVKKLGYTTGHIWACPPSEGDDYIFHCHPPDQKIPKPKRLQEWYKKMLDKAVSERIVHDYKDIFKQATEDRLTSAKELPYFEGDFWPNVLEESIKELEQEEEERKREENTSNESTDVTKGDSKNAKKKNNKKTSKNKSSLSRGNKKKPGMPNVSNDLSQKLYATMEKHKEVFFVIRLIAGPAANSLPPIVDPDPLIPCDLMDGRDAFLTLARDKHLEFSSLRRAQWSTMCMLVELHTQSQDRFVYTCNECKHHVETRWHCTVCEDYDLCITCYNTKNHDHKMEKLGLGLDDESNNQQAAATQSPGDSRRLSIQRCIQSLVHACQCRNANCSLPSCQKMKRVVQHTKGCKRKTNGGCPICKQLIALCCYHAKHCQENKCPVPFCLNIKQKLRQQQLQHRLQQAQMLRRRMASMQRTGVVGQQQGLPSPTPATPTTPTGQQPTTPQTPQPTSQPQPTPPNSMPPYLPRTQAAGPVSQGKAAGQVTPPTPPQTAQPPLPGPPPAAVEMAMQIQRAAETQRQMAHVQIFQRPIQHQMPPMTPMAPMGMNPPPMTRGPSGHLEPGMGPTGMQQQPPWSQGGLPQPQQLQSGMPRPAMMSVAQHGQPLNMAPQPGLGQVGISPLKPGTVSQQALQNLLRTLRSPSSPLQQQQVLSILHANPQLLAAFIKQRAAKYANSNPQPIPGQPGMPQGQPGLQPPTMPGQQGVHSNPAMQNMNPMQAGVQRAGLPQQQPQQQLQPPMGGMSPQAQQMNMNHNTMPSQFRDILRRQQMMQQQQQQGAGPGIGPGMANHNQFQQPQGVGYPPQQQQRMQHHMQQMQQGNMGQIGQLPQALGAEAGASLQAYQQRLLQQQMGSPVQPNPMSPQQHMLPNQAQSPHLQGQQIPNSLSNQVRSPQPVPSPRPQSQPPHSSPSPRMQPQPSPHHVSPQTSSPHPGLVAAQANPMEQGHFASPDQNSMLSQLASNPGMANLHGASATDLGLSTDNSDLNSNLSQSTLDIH

IC50 (histone acetylase p300) [nM] | Structure (SMILES) | IC50 (CWR22RV1 cells; [1]) [nM] | IC50 (CWR22RV1 cells; [2]) [nM]
9.3 | CCC1CC[C@@H](C2CCC(F)(F)CC2)N1C(=O)CN1C(=O)O[C@@]2(CCc3cc(NC(=O)NC)ccc32)C1=O (stereo in doubt) [Example 212, 1-((R)-3′-(2-((2S,5R)-2-(4,4-difluorocyclohexyl)-5-ethyl-pyrrolidin-1-yl)-2-oxoethyl)-2′,4′-dioxo-2,3-dihydrospiro[indene-1,5′-oxazolidine]-5-yl)-3-methylurea] | ≤ 500 | ≤ 500
5.1 | CNC(=O)Nc1ccc2c(c1)CC[C@@]21OC(=O)N(CC(=O)N2C(C3CC3)CC[C@H]2c2ccc(F)cc2)C1=O (stereo in doubt) [Example 380, 1-((R)-3′-(2-((2S,5S)-2-cyclopropyl-5-(4-fluorophenyl)pyrrolidin-1-yl)-2-oxoethyl)-2′,4′-dioxo-2,3-dihydrospiro[indene-1,5′-oxazolidine]-5-yl)-3-methylurea] | ≤ 500 | ≤ 500
4.5 | CNC(=O)Nc1ccc2c(c1)CC[C@@]21OC(=O)N(CC(=O)N2[C@@H](C(C)C)CC[C@H]2c2ccc(F)cc2)C1=O [Compound 48] | – | –
5.7 | CNC(=O)Nc1ccc2c(c1)CC[C@@]21OC(=O)N(CC(=O)N2[C@@H](C)CC[C@H]2c2ccc(F)cc2)C1=O [Example 14, 1-((R)-3′-(2-((2S,5S)-2-(4-fluorophenyl)-5-methylpyrrolidin-1-yl)-2-oxoethyl)-2′,4′-dioxo2,3-dihydrospiro[indene-1,5′-oxazolidine]-5-yl)-3-methylurea] | ≤ 500 | ≤ 500
– | CNC(=O)Nc1ccc2c(c1)CC[C@@]21OC(=O)N(CC(=O)N2C(c3ccc(F)c(F)c3)CC[C@@H]2C)C1=O (stereo partly drawn) [Example 374, 1-((R)-3′-(2-((5S)-2-(3,4-difluorophenyl)-5-methylpyrrolidin-1-yl)-2-oxoethyl)-2′,4′-dioxo-2,3-dihydrospiro[indene-1,5′-oxazolidine]-5-yl)-3-methylurea] | > 2000 | –
– | CNC(=O)Nc1ccc2c(c1)CC[C@@]21OC(=O)N(CC(=O)N2C(c3ccncc3)CC[C@@H]2C)C1=O (stereo partly drawn) [Example 375, 1-methyl-3-(3′-(2-((2S)-2-methyl-5-(pyridin-4-yl)pyrrolidin-1-yl)-2-oxoethyl)-2′,4′-dioxo-2,3-dihydrospiro[indene-1,5′-oxazolidine]-5-yl)urea] | > 2000 | –
– | C[C@H]1CC[C@@H](c2ccc(F)cc2)N1C(=O)CN1C(=O)O[C@@]2(CCc3cc(NC(=O)C(F)F)ccc32)C1=O [Example 376, 2,2-difluoro-N—((R)-3′-(2-((2S,5S)-2-(4-fluorophenyl)-5-methylpyrrolidin-1-yl)-2-oxoethyl)-2′,4′-dioxo-2,3-dihydrospiro[indene-1,5′-oxazolidine]-5-yl)acetamide] | 500 to 2000 | –
– | CO[C@@H](C)C(=O)Nc1ccc2c(c1)CC[C@@]21OC(=O)N(CC(=O)N2[C@@H](C)CC[C@H]2c2ccc(F)cc2)C1=O [Example 377, (S)—N—((R)-3′-(2-((2S,5S)-2-(4-fluorophenyl)-5-methylpyrrolidin-1-yl)-2-oxoethyl)-2′,4′-dioxo-2,3-dihydrospiro[indene-1,5′-oxazolidine]-5-yl)-2-methoxypropionamide] | 500 to 2000 | –
– | CNC(=O)Nc1ccc2c(c1)CC[C@@]21OC(=O)N(CC(=O)N2C(C)CC[C@H]2CN2CCC3(CC2)CC3(F)F)C1=O (stereo partly drawn) [Example 378, 1-((1R)-3′-(2-((2S)-2-((1,1-difluoro-6-aza-spiro[2.5]octan-6-yl)methyl)-5-methylpyrrolidin-1-yl)-2-oxoethyl)-2′,4′-dioxo-2,3-dihydrospiro[indene-1,5′-oxazolidine]-5-yl)-3-methylurea] | > 2000 | –
– | CNC(=O)Nc1ccc2c(c1)CC[C@@]21OC(=O)N(CC(=O)N2[C@H](CN3CCC4(CC3)CC4(F)F)CC[C@@H]2C)C1=O [Example 379, 1-((R)-3′-(2-((2S,5S)-2-((1,1-difluoro-6-aza-spiro[2.5]octan-6-yl)methyl)-5-methylpyrrolidin-1-yl)-2-oxoethyl)-2′,4′-dioxo-2,3-dihydrospiro[indene-1,5′-oxazolidine]-5-yl)-3-methylurea] | > 2000 | –
– | CNC(=O)Nc1ccc2c(c1F)CC[C@]21OC(=O)N(CC(=O)N2[C@@H](C)CC[C@H]2c2ccc(F)c(F)c2)C1=O [Example 381, 1-((S)-3′-(2-((2S,5S)-2-(3,4-difluorophenyl)-5-methylpyrrolidin-1-yl)-2-oxoethyl)-4-fluoro-2′,4′-dioxo-2,3-dihydrospiro[indene-1,5′-oxazolidine]-5-yl)-3-methylurea] | > 2000 | –
– | CNC(=O)Nc1ccc2c(c1F)CC[C@]21OC(=O)N(CC(=O)N2[C@@H](C)CC[C@H]2c2cc(F)c(F)c(F)c2)C1=O [Example 382, 1-((S)-4-fluoro-3′-(2-((2S,5S)-2-methyl-5-(3,4,5-trifluorophenyl)pyrrolidin-1-yl)-2-oxoethyl)-2′,4′-dioxo-2,3-dihydrospiro[indene-1,5′-oxazolidine]-5-yl)-3-methylurea] | > 2000 | –
– | CNC(=O)Nc1ccc2c(c1F)CC[C@@]21OC(=O)N(CC(=O)N2[C@@H](C)CC[C@H]2c2ccc(F)c(F)c2)C1=O [Example 383, 1-((R)-3′-(2-((2S,5S)-2-(3,4-difluorophenyl)-5-methylpyrrolidin-1-yl)-2-oxoethyl)-4-fluoro-2′,4′-dioxo-2,3-dihydrospiro[indene-1,5′-oxazolidine]-5-yl)-3-methylurea] | > 2000 | –
– | CNC(=O)Nc1ccc2c(c1F)CC[C@@]21OC(=O)N(CC(=O)N2[C@@H](C)CC[C@H]2c2cc(F)c(F)c(F)c2)C1=O [Example 384, 1-((R)-4-fluoro-3′-(2-((2S,5S)-2-methyl-5-(3,4,5-trifluorophenyl)pyrrolidin-1-yl)-2-oxoethyl)-2′,4′-dioxo-2,3-dihydrospiro[indene-1,5′-oxazolidine]-5-yl)-3-methylurea] | > 2000 | –
– | CNC(=O)Nc1cc(F)c2c(c1)CC[C@]21OC(=O)N(CC(=O)N2[C@@H](C)CC[C@H]2c2ccc(F)c(F)c2)C1=O [Example 385, 1-((S)-3′-(2-((2S,5S)-2-(3,4-difluorophenyl)-5-methylpyrrolidin-1-yl)-2-oxoethyl)-7-fluoro-2′,4′-dioxo-2,3-dihydrospiro[indene-1,5′-oxazolidine]-5-yl)-3-methylurea] | > 2000 | –
– | CNC(=O)Nc1cc(F)c2c(c1)CC[C@]21OC(=O)N(CC(=O)N2[C@@H](C)CC[C@H]2c2cc(F)c(F)c(F)c2)C1=O [Example 386, 1-((S)-7-fluoro-3′-(2-((2S,5S)-2-methyl-5-(3,4,5-trifluorophenyl)pyrrolidin-1-yl)-2-oxoethyl)-2′,4′-dioxo-2,3-dihydrospiro[indene-1,5′-oxazolidine]-5-yl)-3-methylurea] | > 2000 | –
– | CNC(=O)Nc1cc(F)c2c(c1)CC[C@@]21OC(=O)N(CC(=O)N2[C@@H](C)CC[C@H]2c2ccc(F)c(F)c2)C1=O [Example 387, 1-((R)-3′-(2-((2S,5S)-2-(3,4-difluorophenyl)-5-methylpyrrolidin-1-yl)-2-oxoethyl)-7-fluoro-2′,4′-dioxo-2,3-dihydrospiro[indene-1,5′-oxazolidine]-5-yl)-3-methylurea] | 500 to 2000 | –
– | CNC(=O)Nc1cc(F)c2c(c1)CC[C@@]21OC(=O)N(CC(=O)N2[C@@H](C)CC[C@H]2c2cc(F)c(F)c(F)c2)C1=O [Example 388] | > 2000 | –
– | CNC(=O)Nc1cc2c(cc1F)[C@]1(CC2)OC(=O)N(CC(=O)N2[C@@H](C)CC[C@H]2c2ccc(F)c(F)c2)C1=O [Example 391, 1-((S)-3′-(2-((2S,5S)-2-(3,4-difluorophenyl)-5-methylpyrrolidin-1-yl)-2-oxoethyl)-6-fluoro-2′,4′-dioxo-2,3-dihydrospiro[indene-1,5′-oxazolidine]-5-yl)-3-methylurea] | > 2000 | –
– | CNC(=O)Nc1cc2c(cc1F)[C@]1(CC2)OC(=O)N(CC(=O)N2[C@@H](C)CC[C@H]2c2cc(F)c(F)c(F)c2)C1=O [Example 392] | 500 to 2000 | –
– | CNC(=O)Nc1ccc2c(c1)CC[C@@]21OC(=O)N(CC(=O)N2CCC[C@H]2c2ccccc2OC)C1=O [compound 339] | > 2000 | –
– | CCc1cc(F)ccc1C1CCC(C)N1C(=O)CN1C(=O)O[C@@]2(CCc3cc(NC(=O)NC)ccc32)C1=O (some centres unmarked) [compound 358] | 500 to 2000 | –
– | C[C@H]1CC[C@@H](c2ccc(F)cc2)N1C(=O)CN1C(=O)O[C@@]2(CCc3cc(N)ccc32)C1=O [compound 372] | > 2000 | –
